Patent US20090312349A1, “ANTI-INFLAMMATORY MEDICAMENTS” (priority 2004, published 2009)
pIC50: −log10 of the molar value. Where two headings read alike, the source gives them in different places.

Columns and labels:
Assay type in all cases: biochemical
Abl kinase = molecular target: T1, Abl kinase (Homo sapiens, UniProt P00519); assay: Abl kinase assay A1; settings: for IC50: read-out: Results, μM (IC50)
T1 sequence (P00519 229-512): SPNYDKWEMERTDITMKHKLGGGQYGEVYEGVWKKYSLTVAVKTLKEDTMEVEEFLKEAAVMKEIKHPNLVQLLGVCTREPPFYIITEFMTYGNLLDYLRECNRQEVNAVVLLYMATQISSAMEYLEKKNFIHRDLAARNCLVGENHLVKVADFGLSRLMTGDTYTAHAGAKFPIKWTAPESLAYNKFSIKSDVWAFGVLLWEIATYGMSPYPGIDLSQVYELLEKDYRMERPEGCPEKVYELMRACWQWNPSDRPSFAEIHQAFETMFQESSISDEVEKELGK
Description: (§1) IC50 values were calculated from a series of percent inhibition values determined at a range of inhibitor concentrations using software routines as implemented in the GraphPad Prism software package.

B-Raf(V599E) kinase = B-Raf(V599E) kinase (Homo sapiens, UniProt P15056, V600E); assay: B-Raf(V599E) kinase assay B1; settings: for IC50: Method B1, construct 1
B-Raf(V599E) kinase, sequence (P15056 with tags, fused parts or gaps V600E): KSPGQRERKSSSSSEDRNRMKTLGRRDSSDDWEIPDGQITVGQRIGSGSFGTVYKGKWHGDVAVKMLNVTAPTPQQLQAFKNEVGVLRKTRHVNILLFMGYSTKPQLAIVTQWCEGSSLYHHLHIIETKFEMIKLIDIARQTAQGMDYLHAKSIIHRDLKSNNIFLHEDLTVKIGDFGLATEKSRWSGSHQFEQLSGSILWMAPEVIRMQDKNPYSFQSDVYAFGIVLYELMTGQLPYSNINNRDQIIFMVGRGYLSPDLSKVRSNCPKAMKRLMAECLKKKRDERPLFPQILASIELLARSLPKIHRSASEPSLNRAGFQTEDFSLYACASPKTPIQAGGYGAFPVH
Description: The test compounds were incubated with the reaction mixture at 30° C. for 2 h. […] The reaction rate was calculated using the 1.5 h to 2.5 h time frame. […] IC50 values were calculated from a series of percent inhibition values determined at a range of inhibitor concentrations using software routines as implemented in the GraphPad Prism software package.

KDR kinase = KDR kinase (Homo sapiens, UniProt P35968, DEL940-989/E990V); assay: KDR kinase assay K1
KDR kinase, sequence (P35968 with tags, fused parts or gaps DEL940-989/E990V): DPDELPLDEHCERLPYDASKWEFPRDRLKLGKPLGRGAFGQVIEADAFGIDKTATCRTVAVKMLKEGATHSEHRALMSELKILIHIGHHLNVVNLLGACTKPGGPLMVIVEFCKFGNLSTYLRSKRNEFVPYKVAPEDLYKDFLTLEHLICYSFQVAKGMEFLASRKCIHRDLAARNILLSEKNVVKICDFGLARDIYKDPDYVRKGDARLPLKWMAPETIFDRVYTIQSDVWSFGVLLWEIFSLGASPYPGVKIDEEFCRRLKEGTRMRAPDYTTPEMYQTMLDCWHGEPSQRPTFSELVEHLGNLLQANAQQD
Description: as §1

[1] = molecular target: T2, phospho p-38 alpha kinase (Homo sapiens, UniProt Q16539); assay: P-38 alpha kinase assay (spectrophotometric, pyruvate kinase/lactate dehydrogenase coupled); settings: Table 5; for IC50: assay not named, read-out: uM
T2 construct: purchased Panvera
T2 sequence (Q16539 whole entry): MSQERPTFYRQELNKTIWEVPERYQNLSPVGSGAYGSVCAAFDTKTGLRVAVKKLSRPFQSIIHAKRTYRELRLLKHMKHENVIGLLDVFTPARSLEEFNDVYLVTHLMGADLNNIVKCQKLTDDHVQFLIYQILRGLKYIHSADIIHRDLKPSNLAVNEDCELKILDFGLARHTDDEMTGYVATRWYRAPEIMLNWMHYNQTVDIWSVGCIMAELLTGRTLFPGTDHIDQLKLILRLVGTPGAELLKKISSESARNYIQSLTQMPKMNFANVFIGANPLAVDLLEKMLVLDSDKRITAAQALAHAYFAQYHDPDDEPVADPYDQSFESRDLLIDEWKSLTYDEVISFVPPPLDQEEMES

[2] = molecular target: phosphorylated p-38-alpha kinase (Homo sapiens, UniProt Q16539); assay: P-38 alpha kinase assay P1; settings: Method P1; 2 h pre-incubation before ATP
phosphorylated p-38-alpha kinase, sequence (Q16539 1-360 isoform Q16539-2): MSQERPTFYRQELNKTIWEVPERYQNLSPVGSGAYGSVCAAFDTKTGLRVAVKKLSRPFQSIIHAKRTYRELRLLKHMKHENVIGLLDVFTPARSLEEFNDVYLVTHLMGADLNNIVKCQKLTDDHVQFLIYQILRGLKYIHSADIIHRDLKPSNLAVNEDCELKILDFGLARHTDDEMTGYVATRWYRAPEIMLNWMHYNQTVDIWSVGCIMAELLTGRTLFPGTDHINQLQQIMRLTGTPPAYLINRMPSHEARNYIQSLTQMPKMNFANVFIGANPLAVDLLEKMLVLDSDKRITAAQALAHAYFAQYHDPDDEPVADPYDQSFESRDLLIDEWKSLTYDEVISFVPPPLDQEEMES

[3] = read-out: Results, % @ concentration μM, Method A1, @ 10 μM
[4] = read-out: Results, % @ concentration μM, Method K1, @ 10 μM
[5] = read-out: Results, % @ concentration μM

Compound | inhibition at 10 µM (Abl kinase; [3]) [%] | IC50 (B-Raf(V599E) kinase) [µM] | inhibition at 10 µM (KDR kinase; [4]) [%] | IC50 [1] [µM] | IC50 [2] [µM] | further results
O=C(O)Cc1cccc(-n2nc(-c3ccc(F)cc3)cc2NC(=O)Nc2cccc(Cl)c2Cl)c1 [Example 431, 2-(3-(5-(3-(2,3-dichlorophenyl)ureido)-3-(4-fluorophenyl)-1H-pyrazol-1-yl)phenyl)acetic acid] | 29 |  |  |  |  | 
CCOC(=O)Cc1ccc(-n2nc(C3CCCC3)cc2NC(=O)Nc2cccc(Cl)c2Cl)cc1 [Example 437, ethyl 2-(4-(3-cyclopentyl-5-(3-(2,3-dichlorophenyl)ureido)-1H-pyrazol-1-yl)phenyl)acetate] | 21 | 0.16 | 32 |  |  | 
O=C(O)Cc1ccc(-n2nc(-c3cccs3)cc2NC(=O)Nc2cccc(Cl)c2Cl)cc1 [Example 442, 2-(4-(5-(3-(2,3-dichlorophenyl)ureido)-3-(thiophen-2-yl)-1H-pyrazol-1-yl)phenyl)acetic acid] |  |  | 25 | 3.01 |  | inhibition at 1 µM (B-Raf(V599E) kinase; [5]): 24%
CC(C(=O)O)c1ccc(-n2nc(-c3cccs3)cc2NC(=O)Nc2cccc(Cl)c2Cl)cc1 (stereo not drawn) [Example 443, 2-(4-(5-(3-(2,3-dichlorophenyl)ureido)-3-(thiophen-2-yl)-1H-pyrazol-1-yl)phenyl)propanoic acid] |  |  | 33 |  | 0.03 | inhibition at 1 µM (B-Raf(V599E) kinase; [5]): 20%
COC(=O)Cc1ccc(-n2nc(-c3ccsc3)cc2NC(=O)Nc2cccc(Cl)c2Cl)cc1 [Example 445, methyl 2-(4-(5-(3-(2,3-dichlorophenyl)ureido)-3-(thiophen-3-yl)-1H-pyrazol-1-yl)phenyl)acetate] | 30 |  |  |  |  | inhibition at 1 µM (B-Raf(V599E) kinase; [5]): 39%
NC(=O)Cc1cccc(-n2nc(-c3ccsc3)cc2NC(=O)Nc2cccc(Cl)c2Cl)c1 [Example 452, 1-(1-(3-(2-amino-2-oxoethyl)phenyl)-3-(thiophen-3-yl)-1H-pyrazol-5-yl)-3-(2,3-dichlorophenyl)urea] | 37 |  |  |  | 0.006 | inhibition at 1 µM (B-Raf(V599E) kinase; [5]): 45%
O=C(Cc1cccc(-n2nc(-c3ccccc3F)cc2NC(=O)Nc2cccc(Cl)c2Cl)c1)NCCO [Example 456, 1-(2,3-dichlorophenyl)-3-(3-(2-fluorophenyl)-1-(3-(2-(2-hydroxyethylamino)-2-oxoethyl)phenyl)-1H-pyrazol-5-yl)urea] |  |  | 53 | 0.04 | 0.015 | 
O=C(Cc1cccc(-n2nc(-c3cccs3)cc2NC(=O)Nc2cccc(Cl)c2Cl)c1)NCCO [Example 457, 1-(2,3-dichlorophenyl)-3-(1-(3-(2-(2-hydroxyethylamino)-2-oxoethyl)phenyl)-3-(thiophen-2-yl)-1H-pyrazol-5-yl)urea] |  |  | 31 | 1.1 | 0.008 | 
O=C(Cc1cccc(-n2nc(-c3cccs3)cc2NC(=O)Nc2cccc(Cl)c2Cl)c1)NCC(O)CO (stereo not drawn) [Example 460, 1-(2,3-dichlorophenyl)-3-(1-(3-(2-(2,3-dihydroxypropylamino)-2-oxoethyl)phenyl)-3-(thiophen-2-yl)-1H-pyrazol-5-yl)urea] |  | 2.4 | 26 |  | 0.008 | 
O=C(Cc1cccc(-n2nc(-c3ccccc3F)cc2NC(=O)Nc2cccc(Cl)c2Cl)c1)NC(CO)CO [Example 461, 1-(2,3-dichlorophenyl)-3-(1-(3-(2-(1,3-dihydroxypropan-2-ylamino)-2-oxoethyl)phenyl)-3-(2-fluorophenyl)-1H-pyrazol-5-yl)urea] |  |  | 33 | 0.017 | 0.03 | inhibition at 10 µM (B-Raf(V599E) kinase; [5]): 28%
O=C(Cc1cccc(-n2nc(-c3cccs3)cc2NC(=O)Nc2cccc(Cl)c2Cl)c1)NC(CO)CO [Example 462, 1-(2,3-dichlorophenyl)-3-(1-(3-(2-(1,3-dihydroxypropan-2-ylamino)-2-oxoethyl)phenyl)-3-(thiophen-2-yl)-1H-pyrazol-5-yl)urea] |  |  | 25 |  | 0.008 | inhibition at 1 µM (B-Raf(V599E) kinase; [5]): 43%
CN(C)[C@@H]1CCN(C(=O)Cc2cccc(-n3nc(C(C)(C)C)cc3NC(=O)Nc3cccc(Cl)c3Cl)c2)C1 [Example 464, 1-(3-tert-butyl-1-(3-(2-((R)-3-(dimethylamino)pyrrolidin-1-yl)-2-oxoethyl)phenyl)-1H-pyrazol-5-yl)-3-(2,3-dichlorophenyl)urea] |  |  |  |  |  | inhibition at 10 µM (Abl kinase; [5]): 82%; inhibition at 10 µM (KDR kinase; [5]): 85%
CN(C)[C@H]1CCN(C(=O)Cc2cccc(-n3nc(C(C)(C)C)cc3NC(=O)Nc3cccc(Cl)c3Cl)c2)C1 [Example 465, 1-(3-tert-butyl-1-(3-(2-((S)-3-(dimethylamino)pyrrolidin-1-yl)-2-oxoethyl)phenyl)-1H-pyrazol-5-yl)-3-(2,3-dichlorophenyl)urea] |  |  |  |  |  | pIC50 (Abl kinase): 5.92; inhibition at 10 µM (KDR kinase; [5]): 91%
NC(=O)Cc1ccc(-n2nc(-c3ccsc3)cc2NC(=O)Nc2cccc(Cl)c2Cl)cc1 [Example 469, 1-(1-(4-(2-amino-2-oxoethyl)phenyl)-3-(thiophen-3-yl)-1H-pyrazol-5-yl)-3-(2,3-dichlorophenyl)urea] | 22 |  |  |  | 0.009 | inhibition at 1 µM (B-Raf(V599E) kinase; [5]): 43%
O=C(Cc1ccc(-n2nc(-c3ccccc3)cc2NC(=O)Nc2cccc(Cl)c2Cl)cc1)NCCO [Example 470, 1-(2,3-dichlorophenyl)-3-(1-(4-(2-(2-hydroxyethylamino)-2-oxoethyl)phenyl)-3-phenyl-1H-pyrazol-5-yl)urea] | 15 |  |  | 0.005 |  | 
CC(C)(C)c1cc(NC(=O)Nc2cccc(Cl)c2Cl)n(-c2ccc(CC(=O)N3CCCC(C(=O)O)C3)cc2)n1 (stereo not drawn) [Example 476, 1-(2-(4-(3-tert-butyl-5-(3-(2,3-dichlorophenyl)ureido)-1H-pyrazol-1-yl)phenyl)acetyl)piperidine-3-carboxylic acid] |  | 0.041 |  | 0.024 | 0.006 | IC50 (Abl kinase; Method A1): 8.4 µM
CN(C)[C@@H]1CCN(C(=O)Cc2ccc(-n3nc(C(C)(C)C)cc3NC(=O)Nc3cccc(Cl)c3Cl)cc2)C1 [Example 480, (R)-1-(3-tert-butyl-1-(4-(2-(3-(dimethylamino)pyrrolidin-1-yl)-2-oxoethyl)phenyl)-1H-pyrazol-5-yl)-3-(2,3-dichlorophenyl)urea] | 94 | 0.029 | 92 |  |  | 
CN(C)[C@@H]1CCN(C(=O)Cc2ccc(-n3nc(C(C)(C)C)cc3NC(=O)Nc3cccc(Cl)c3Cl)cc2)C1 [Example 481, (R)-1-(3-tert-butyl-1-(4-(2-(3-(dimethylamino)pyrrolidin-1-yl)-2-oxoethyl)phenyl)-1H-pyrazol-5-yl)-3-(2,3-dichlorophenyl)urea] |  | 0.041 |  |  |  | Results, % @ concentration μM (Abl kinase; Method A1, @ 10 μM): 93% @10; Results, % @ concentration μM (KDR kinase; Method K1, @ 10 μM): 102% @10
O=C(Nc1cccc(Cl)c1Cl)Nc1cc(-c2ccccc2)nn1-c1cccc(CO)c1 [Example 484, 1-(2,3-dichlorophenyl)-3-(1-(3-(hydroxymethyl)phenyl)-3-phenyl-1H-pyraol-5-yl)urea] |  | 7.4 | 37 |  | 0.009 | 
O=C(Nc1ccc(F)c(F)c1F)Nc1cc(-c2cccs2)nn1-c1cccc(CO)c1 [Example 493, 1-(1-(3-(hydroxymethyl)phenyl)-3-(thiophen-2-yl)-1H-pyrazol-5-yl)-3-(2,3,4-trifluorophenyl)urea] |  |  | 82 |  |  | % @ concentration, uM ([1]; @ 1 uM): 36%; % @ concentration, uM ([1]; @ 10 uM): 73%; inhibition at 1 µM (Abl kinase; read-out: Results, % @ concentration μM, Method A1, @ 1 μM): 17%
CC(C)(C)c1cc(NC(=O)Nc2cccc(F)c2F)n(-c2cccc(CC(N)=O)c2)n1 [Example 495, 1-(1-(3-(2-amino-2-oxoethyl)phenyl)-3-tert-butyl-1H-pyrazol-5-yl)-3-(2,3-difluorophenyl)urea] |  | 0.009 |  | 0.25 | 0.038 | IC50 (Abl kinase; Method A1): 7.6 µM
NC(=O)Cc1cccc(-n2nc(-c3ccccc3)cc2NC(=O)Nc2cccc(Oc3cccnc3)c2)c1 [Example 501, 1-(1-(3-(2-amino-2-oxoethyl)phenyl)-3-phenyl-1H-pyrazol-5-yl)-3-(3-(pyridin-3-yloxy)phenyl)urea] |  |  |  |  | 0.076 | IC50 (Abl kinase; Method A1): 2.5 µM; IC50 (KDR kinase; Method K1): 1.6 µM
CC(C)(C)c1cc(NC(=O)Nc2cccc(-c3cccnc3)c2)n(-c2cccc(CC(N)=O)c2)n1 [Example 507, 1-(1-(3-(2-amino-2-oxoethyl)phenyl)-3-tert-butyl-1H-pyrazol-5-yl)-3-(3-(pyridin-3-yl)phenyl)urea] |  | 0.035 |  | 0.007 | 0.18 | IC50 (Abl kinase; Method A1): 23.3 µM
CC(C)(C)c1cc(NC(=O)Nc2cccc(-c3ccc(N)nc3)c2)n(-c2cccc(CC(N)=O)c2)n1 [Example 508, 1-(1-(3-(2-amino-2-oxoethyl)phenyl)-3-tert-butyl-1H-pyrazol-5-yl)-3-(3-(6-aminopyridin-3-yl)phenyl)urea] | 32 | 0.02 |  | 0.052 | 0.33 | 
